Reference: patent US9453038B2, “Glucokinase activator compounds, compositions containing such compounds, and methods of treatment” (Merck Sharp & Dohme Corp., priority 2012, dated 2016)
Read-outs that look alike come from different tables or passages of the source.

Target: Recombinant human liver glucokinase (FLAG fusion protein) (Homo sapiens (Human), UniProt P35557)
Experiment: glucokinase (GK) activation assay, Thio-NADH formation coupled to G6PDH, absorbance at 405 nm
Format: biochemical
Settings: 2.5 mM Glu; for EC50: 30° C.; for Emax: OD value of DMSO control regarded as 100%
From the text: The glucokinase activity can, for instance, be determined without directly measuring glucose-6-phosphate by measuring the amount of Thio-NADH generated during the production of phosphogluconolactone from glucose-6-phosphate by a reporter enzyme glucose-6-phosphate dehydrogenase.
To test the exemplified compounds, the following assay was employed. Recombinant human liver glucokinase was expressed as a FLAG fusion protein in E. coli, and purified on ANTIFLAG M2 AFFINITY GEL (Sigma). The assay was carried out at 30° C. in a 96-well plate. In the plate was distributed 69 μl each of assay buffer (25 mM Hepes Buffer: pH=7.2, 2 mM MgCl2, 1 mM ATP, 0.5 mM TNAD, 1 mM dithiothreitol), to which was added 1 μl of a DMSO solution of the compound or DMSO as control. Then, 20 μl of pre-ice-cooled enzyme mixture (FLAG-GK, 20 U/ml G6PDH) was distributed thereto, to which was added 10 μl of 25 mM glucose as substrate to initiate the reaction (final glucose concentration=2.5 mM). After starting the reaction, the absorbance at 405 nm was measured every 30 seconds for 10 minutes to evaluate the compound based on the initial increase for 5 minutes. FLAG-GK was added so that the increase of absorbance after 5 minutes fell between 0.05 to 0.1 in the presence of 1% DMSO.
The OD values of the respective compounds were measured in the respective concentrations, wherein the OD value of DMSO as control is regarded as 100%. From the OD values at the respective concentrations, Emax (%, 2.5 mM Glu) and EC50 (nM, 2.5 mM Glu) were calculated and used as indicators of the GK activation capability of the compounds. According to the above assay, the GK activation capability of the exemplified compounds of the present invention was determined. […] Where different enantiomers of the same compound were tested, two numbers are provided. Where 3 numbers are provided, for example, Ex. #30, data for the racemic form is also shown.

Chain of Recombinant human liver glucokinase (FLAG fusion protein) (P35557 other isoform, or with tags, fused parts or gaps): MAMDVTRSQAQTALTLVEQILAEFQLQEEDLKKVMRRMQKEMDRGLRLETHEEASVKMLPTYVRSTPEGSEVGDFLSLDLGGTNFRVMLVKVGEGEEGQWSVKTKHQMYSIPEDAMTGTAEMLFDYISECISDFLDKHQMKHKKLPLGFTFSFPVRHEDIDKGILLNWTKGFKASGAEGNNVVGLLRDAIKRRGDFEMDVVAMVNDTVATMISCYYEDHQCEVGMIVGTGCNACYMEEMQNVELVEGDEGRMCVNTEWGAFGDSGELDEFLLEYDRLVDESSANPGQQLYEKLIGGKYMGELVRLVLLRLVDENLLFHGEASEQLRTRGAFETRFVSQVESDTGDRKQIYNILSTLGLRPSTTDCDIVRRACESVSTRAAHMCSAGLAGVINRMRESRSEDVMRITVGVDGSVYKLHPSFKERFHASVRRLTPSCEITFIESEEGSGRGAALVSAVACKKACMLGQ

SMILES | EC50 | Emax (read-out: Emax) | Emax
CCS(=O)(=O)c1ccc(Oc2cc3cc(-c4ccc(C(F)(F)F)cn4)[nH]c3cc2C2CCC(=O)N2CC(=O)O)cc1 (stereo not shown) [Example 3, (2-{5-[4-(ETHYLSULFONYL)PHENOXY]-2-[5-(TRIFLUOROMETHYL)PYRIDIN-2-YL]-1H-INDOL-6-YL}-5-OXOPYRROLIDIN-1-YL)ACETIC ACID] | 797 nM | 628% | 
CN1C(=O)CCC1c1cc2[nH]c(-c3ccc(OCC(=O)O)cn3)cc2cc1Oc1ccc(S(C)(=O)=O)nc1 (stereo not shown) [Example 18, 2-((6-(6-(1-methyl-5-oxopyrrolidin-2-yl)-5-((6-(methylsulfonyl)pyridin-3-yl)oxy)-1H-indol-2-yl)pyridin-3-yl)oxy)acetic acid] | 81 nM | 612% | 
CS(=O)(=O)c1ccc(Oc2cc3cc(-c4ccc(CCC(=O)O)cn4)[nH]c3nc2CN2CCCC2=O)cn1 [Example 9, 3-[6-(5-{[6-(METHYLSULFONYL)PYRIDIN-3-YL]OXY}-6-[(2-OXOPYRROLIDIN-1-YL)METHYL]-1H-PYRROLO[2,3-B]PYRIDIN-2-YL)PYRIDIN-3-YL]PROPANOIC ACID] | 533 nM |  | 
CN1C(=O)CCC1c1cc2[nH]c(-c3nc(CC(=O)O)cs3)cc2cc1Oc1ccc(S(C)(=O)=O)cc1 (stereo not shown) [Example 34, 2-(2-(6-(1-methyl-5-oxopyrrolidin-2-yl)-5-(4-(methylsulfonyl)phenoxy)-1H-indol-2-yl)thiazol-4-yl)acetic acid] | 118 nM | 606% | 
COC(=O)Cc1ccc(Oc2cc3cc(-c4ccccn4)[nH]c3cc2C2CCC(=O)N2C)cc1 (stereo not shown) [Example 25, methyl 2-(4-((6-(1-methyl-5-oxopyrrolidin-2-yl)-2-(pyridin-2-yl)-1H-indol-5-yl)oxy)phenyl)acetate] | 21 nM | 649% | 
CCOP(=O)(Cc1cnc(-c2cc3cc(Oc4ccc(S(C)(=O)=O)nc4)c(C4CCC(=O)N4C)cc3[nH]2)s1)OCC (stereo not shown) [Example 37, diethyl((2-(6-(1-methyl-5-oxopyrrolidin-2-yl)-5-((6-(methylsulfonyl)pyridin-3-yl)oxy)-1H-indol-2-yl)thiazol-5-yl)methyl)phosphonate] | 23.5 nM | 696% | 
CN1C(=O)CCC1c1cc2[nH]c(-c3ccc(C(F)(F)F)cn3)cc2cc1Oc1ccc(CC(=O)O)cc1 (stereo not shown) [Example 20, 2-(4-((6-(1-methyl-5-oxopyrrolidin-2-yl)-2-(5-(trifluoromethyl)pyridin-2-yl)-1H-indol-5-yl)oxy)phenyl)acetic acid] | 63.9 nM | 521% | 
CN1C(=O)CCC1c1cc2[nH]c(-c3ncc(CCC(=O)O)s3)cc2cc1Oc1ccc(S(C)(=O)=O)nc1 (stereo not shown) [Example 31, 3-(2-(6-(1-methyl-5-oxopyrrolidin-2-yl)-5-((6-(methylsulfonyl)pyridin-3-yl)oxy)-1H-indol-2-yl)thiazol-5-yl)propanoic acid] | 68.8 nM | 599% | 
CCS(=O)(=O)c1ccc(Oc2cc3cc(-c4ccc(CCC(=O)OC)cn4)[nH]c3cc2C2CCC(=O)N2C)cc1 (stereo not shown) [Example 1, METHYL 3-(6-{5-[4-(ETHYLSULFONYL)PHENOXY]-6-(1-METHYL-5-OXOPYRROLIDIN-2-YL)-1H-INDOL-2-YL}PYRIDIN-3-YL)PROPANOATE] | 1.9 nM | 624% | 
COC(=O)CCc1cnc(-c2cc3cc(Oc4ccc(S(C)(=O)=O)cc4)c(C4CCC(=O)N4C)cc3[nH]2)s1 (stereo not shown) [Example 35, methyl 3-(2-(6-(1-methyl-5-oxopyrrolidin-2-yl)-5-(4-(methylsulfonyl)phenoxy)-1H-indol-2-yl)thiazol-5-yl)propanoate] | 8.9 nM | 656% | 
COCc1ccc(Oc2cc3cc(-c4ccc(CCC(=O)O)cn4)[nH]c3cc2C2CCC(=O)N2C)cn1 (stereo not shown) [Example 19, 3-(6-(5-((6-(methoxymethyl)pyridin-3-yl)oxy)-6-(1-methyl-5-oxopyrrolidin-2-yl)-1H-indol-2-yl)pyridin-3-yl)propanoic acid] | 71.8 nM | 431% | 
CCS(=O)(=O)c1ccc(Oc2cc3cc(-c4ccc(P(C)(=O)O)cn4)[nH]c3cc2C2CCC(=O)N2C)cc1 (stereo not shown) [Example 12, (6-(5-(4-(ETHYLSULFONYL)PHENOXY)-6-(1-METHYL-5-OXOPYRROLIDIN-2-YL)-1H-INDOL-2-YL)PYRIDIN-3-YL)(METHYL)PHOSPHINIC ACID] | 53.6 nM | 614% | 
CN1C(=O)CCC1c1cc2[nH]c(-c3cnccn3)cc2cc1Oc1ccc(CCC(=O)O)cc1 (stereo not shown) [Example 21, 3-(4-((6-(1-methyl-5-oxopyrrolidin-2-yl)-2-(pyrazin-2-yl)-1H-indol-5-yl)oxy)phenyl)propanoic acid] | 39.1 nM | 628% | 
COC(=O)CCc1ccc(Oc2cc3cc(-c4ccc(C(F)(F)F)cn4)[nH]c3cc2C2CCC(=O)N2C)cc1 (stereo not shown) [Example 4, METHYL 3-[4-({6-(1-METHYL-5-OXOPYRROLIDIN-2-YL)-2-[5-(TRIFLUORO-METHYL)PYRIDIN-2-YL]-1H-INDOL-5-YL}OXY)PHENYL]PROPIONATE] |  | 455% | 453.8%
CN1C(=O)CCC1c1cc2[nH]c(-c3nc(CC(=O)O)c(Cl)s3)cc2cc1Oc1ccc(S(C)(=O)=O)nc1 (stereo not shown) [Example 30, 2-(5-chloro-2-(6-(1-methyl-5-oxopyrrolidin-2-yl)-5-((6-(methylsulfonyl)pyridin-3-yl)oxy)-1H-indol-2-yl)thiazol-4-yl)acetic acid] | 49.1 nM | 506% | 
CN1C(=O)CCC1c1cc2[nH]c(-c3ccc(C(=O)NCCC(=O)O)cn3)cc2cc1Oc1ccc(S(C)(=O)=O)nc1 (stereo not drawn) [Example 8, N-({6-[6-(1-METHYL-5-OXOPYRROLIDIN-2-YL)-5-{[6-(METHYL-SULFONYL)PYRIDIN-3-YL]OXY}-1H-INDOL-2-YL]PYRIDIN-3-YL}-CARBONYL)-β-ALANINE] | 116 nM | 501% | 
COC(=O)Cc1csc(-c2cc3cc(Oc4ccc(S(C)(=O)=O)cc4)c(C4CCC(=O)N4C)cc3[nH]2)n1 (stereo not shown) [Example 32, methyl 2-(2-(6-(1-methyl-5-oxopyrrolidin-2-yl)-5-(4-(methylsulfonyl)phenoxy)-1H-indol-2-yl)thiazol-4-yl)acetate] | 65.1 nM | 566% | 
CS(=O)(=O)c1ccc(Oc2cc3cc(-c4ccc(CCC(=O)O)cn4)[nH]c3cc2Oc2ccccc2F)cc1 [Example 7, 3-(6-{6-(2-FLUOROPHENOXY)-5-[4-(METHYLSULFONYL)PHENOXY]-1H-INDOL-2-YL}PYRIDIN-3-YL)PROPANOIC ACID] | 774 nM | 15.7% | 
CN1C(=O)CCC1c1cc2[nH]c(-c3nc(CC(=O)O)c(Cl)s3)cc2cc1Oc1ccc(S(C)(=O)=O)cc1 (stereo not shown) [Example 33, 2-(5-chloro-2-(6-(1-methyl-5-oxopyrrolidin-2-yl)-5-(4-(methylsulfonyl)phenoxy)-1H-indol-2-yl)thiazol-4-yl)acetic acid] | 47.4 nM | 586% | 
CN1C(=O)CCC1c1cc2[nH]c(-c3ccccn3)cc2cc1Oc1ccc(CC(=O)O)cc1 (stereo not shown) [Example 27, 2-(4-((6-(1-methyl-5-oxopyrrolidin-2-yl)-2-(pyridin-2-yl)-1H-indol-5-yl)oxy)phenyl)acetic acid] | 23.8 nM | 630% | 
COC(=O)CCc1ccc(Oc2cc3cc(-c4cnccn4)[nH]c3cc2C2CCC(=O)N2C)cc1 (stereo not shown) [Example 23, methyl 3-(4-((6-(1-methyl-5-oxopyrrolidin-2-yl)-2-(pyrazin-2-yl)-1H-indol-5-yl)oxy)phenyl)propanoate] | 2.1 nM | 574% | 
CN1C(=O)CCC1c1cc2[nH]c(-c3ncc(CCC(=O)O)s3)cc2cc1Oc1ccc(S(C)(=O)=O)cc1 (stereo not shown) [Example 36, 3-(2-(6-(1-methyl-5-oxopyrrolidin-2-yl)-5-(4-(methylsulfonyl)phenoxy)-1H-indol-2-yl)thiazol-5-yl)propanoic acid] | 66.7 nM | 619% | 
COC(=O)CCc1ccc(-c2cc3cc(Oc4ccc(C(=O)N5CCC5)nc4)c(C4CCCN4C(C)=O)cc3[nH]2)nc1 (stereo not shown) [Example 10, METHYL 3-{6-[6-(1-ACETYLPYRROLIDIN-2-YL)-5-{[6-(AZETIDIN-1-YLCARBONYL)PYRIDIN-3-YL]OXY}-1H-INDOL-2-YL]PYRIDIN-3-YL}PROPANOATE] | 13.9 nM | 419% | 
CN1C(=O)CCC1c1cc2[nH]c(-c3ccccc3)cc2cc1Oc1ccc(CCC(=O)O)cc1 (stereo not shown) [Example 22, 3-(4-((6-(1-methyl-5-oxopyrrolidin-2-yl)-2-phenyl-1H-indol-5-yl)oxy)phenyl)propanoic acid] | 456 nM | 410% | 
CC(=O)N1CCCC1c1cc2[nH]c(-c3ccc(CCC(=O)O)cn3)cc2cc1Oc1ccc(C(=O)N2CCC2)nc1 (stereo not shown) [Example 11, 3-{6-[6-(1-ACETYLPYRROLIDIN-2-YL)-5-{[6-(AZETIDIN-1-YLCARBONYL)PYRIDIN-3-YL]OXY}-1H-INDOL-2-YL]PYRIDIN-3-YL}PROPANOIC ACID] | 187 nM | 410% | 
